Converted amounts (≈) assume the structure as drawn. Read-outs that look alike come from different tables or passages of the source.
Key:
[1] = system: HIV-1 in chronic infected U1 cells (HIV monocytes); assay: HIV chronic study, monocyte HIV replication; assay type: cell-based; conditions: Human immunodeficiency virus 1, Monocyte; 1 μg/ml; positive control; read-out: suppressed HIV monocytes replication
Protocol: (§1) These cells were treated with test samples.

[2] = system: HIV-1 in chronic infected ACH-2 cells (T-cell); assay: HIV chronic study, T-cell HIV replication; assay type: cell-based; conditions: Human immunodeficiency virus 1, ACH-2; positive control AZT (1 μg/ml); read-out: suppressed T-cell HIV replication
Protocol: as §1

[3] = system: HIV; assay: In vitro acute model for HIV, viral replication; assay type: cell-based; conditions: Human immunodeficiency virus 1, 1 μg/ml, read-out: inhibited viral replication
Protocol: In an in vitro acute model for HIV carbendazim inhibited viral replication by 100% at 4 μg/ml and AZT inhibited viral replication by 98% at 1 μg/ml. Thiabendazole inhibited viral replication by 98% at 60 μg/ml.

[4] = system: HIV-1; assay: HIV chronic study, therapeutic index
Protocol: Chronic HIV-1 infected cells U1 were derived from an acute HIV-1 infection of the promonocytic cell line, U937. The chronic HIV-1 infected cells, ACH-2 were derived from an acute HIV-1 infection of the T cell line, A3.01.
These cells were cultured in medium and the phorbol ester, PMA. […] Cell viability was measured when these cell lines were treated with the test compounds.
In addition, the number of institute positive HIV mRNA expressing cells per microscopic field is measured. Comparisons can be made from these numbers since the same number of cells were adhered to the glass slides for each drug concentration (10×10^6 cells/ml).

[5] = system: melanoma; assay: In vivo mouse model for melanoma, combination with Navelbine, survival time
[6] = system: HT29 colon tumor cells; assay: MTT cell viability, colon tumor cells (Table 1); assay type: cell-based; conditions: Homo sapiens, HT-29, 120 h, approx. 5 days, read-out: EC-50 Result
Protocol: (§2) The following cell culture tests were performed to test the toxicity of the benzimidazole compounds on colon, breast and lung human tumor cells. The viability of the cells were tested by looking at MTT (3-[4,5-dimethylthiazol-2-yl]-2,5-diphenyltetrazolium bromide) reduction. MTT assay is a well known measure of cell viability.
(§3) The colon tumor cells (HT29 from American Type Culture Collection (ATCC)) and the breast cells (MX1 from cell lines from ATCC) were cultured in Eagle's Miminal Essential Medium with 10% fetal bovine serum. The lung tumor cells (A549 from ATCC cell lines) were cultured in Ham's F12 medium with 10% fetal bovine serum.
(§4) The tumor cells were passaged and seeded into culture flasks at the desired cell densities. The culture medium was decanted and the cell sheets were washed twice with phosphate buffered saline (PBS). The cells were trypsinized and triturated prior to seeding the flasks. Unless otherwise indicated the cultures were incubated at 37±1° C. in a humidified atmosphere of 5±1% carbon dioxide in air. The cultures were incubated until they were 50-80% confluent.
(§5) The cells were subcultured when the flasks were subconfluent. The medium was aspirated from the flasks and the cell sheets rinsed twice with PBS. Next, the Trypsin Solution was added to each flask to cover the cell sheet. The Trypsin Solution was removed after 30-60 seconds and the flasks were incubated at room temperature for two to six minutes. When 90% of the cells became dislodged, growth medium was added. The cells were removed by trituration and transferred to a sterile centrifuge tube. The concentration of cells in the suspension was determined, and an appropriate dilution was made to obtain a density of 5000 cells/ml. The cells were subcultured into the designated wells of the 96-well bioassay plates (200 microliter cell suspension per well). PBS was added to all the remaining wells to maintain humidity. The plates were then incubated overnight before test article treatment.
(§6) Each dose of test article was tested by treating quadruplicate wells of cultures with 100 microliter of each dilution. Those wells designated as solvent controls received an additional 100 microliter of methanol control; negative controls wells received an additional 100 microliters of treatment medium. PBS was added to the remaining wells not treated with test article or medium. The plates were then incubated for approximately 5 days.
(§7) At the end of the 5 day incubation, each dose group was examined microscopically to assess toxicity. A 0.5 mg/ml dilution of MTT was made in treatment medium, and the dilution was filtered through a 0.45 micrometer filter to remove undissolved crystals. The medium was decanted from the wells of the bioassy plates. Immediately thereafter, […] of the filtered MTT solution was added to all test wells except for the two untreated blank test wells. The two blank wells received 200 microliters of treatment medium. The plates were returned to the incubator for about 3 hours. After incubation, the MTT containing medium was decanted. […] was added to each well and the plates were shaken at room temperature for about 2 hours.
(§8) The absorbance at 550 mn (OD550) of each well was measured with a Molecular Devices (Menlo Park, Calif.) VMax plate reader.
(§9) The mean OD550 of the solvent control wells and that of each test article dilution, and that of each of the blank wells and the positive control were calculated. The mean OD550 of the blank wells was subtracted from the mean of the solvent control wells, and test article wells, respectively to give the corresponding mean OD550. [formula]
(§10) Dose response curves were prepared as semi-log plots with % of control on the ordinate (linear) and the test article concentration on the abscissa (logarithmic). The EC50 was interpolated from the plots for each test article.
(§11) For the test articles administered in methanol, separate responses were prepared to correct for the methanol data. […]

[7] = system: MX1 breast tumor cells; assay: MTT cell viability, breast tumor cells (Table 1); assay type: cell-based; conditions: Homo sapiens, 120 h, approx. 5 days, read-out: EC-50 Result
Protocol: as §2, §3, §4, §5, §6, §7, §8, §9, §10, §11

[8] = system: A549 lung tumor cells; assay: MTT cell viability, lung tumor cells (Table 1); assay type: cell-based; conditions: Homo sapiens, A549, 120 h, approx. 5 days, read-out: EC-50 Result
Protocol: as §2, §3, §4, §5, §6, §7, §8, §9, §10, §11

[9] = Toxicity to normal healthy cells (Table 2); assay type: cell-based; conditions: read-out: EC-50 (the source's name)
Text: The EC50 is the concentration at which one half of the cells are killed.
In normal healthy cells, the following results were obtained.

[10] = system: colon, breast and lung human tumor cells; assay: Colon, breast and lung tumor cells test, overall comparison; assay type: cell-based; conditions: positive control, in all cases
Protocol: as §2, §3
The tumor cells were passaged and seeded into culture flasks at the desired cell densities. The culture medium was decanted and the cell sheets were washed twice with phosphate buffered saline (PBS). The cells were trypsinized and triturated prior to seeding the flasks. […]
The cells were subcultured when the flasks were subconfluent. […] The concentration of cells in the suspension was determined, and an appropriate dilution was made to obtain a density of 5000 cells/ml. […]
as §8
The mean OD550 of the solvent control wells and that of each test article dilution, and that of each of the blank wells and the positive control were calculated. […]

Structure (SMILES): Cc1cn([C@H]2C[C@H](N=[N+]=[N-])[C@@H](CO)O2)c(=O)[nH]c1=O [AZT]
- inhibition at 1 µg/mL [1]: 98%
- inhibition at 1 µg/mL [2]: 60%
- inhibition at 1 µg/mL [3]: 98%
- therapeutic index (TI), the ratio of the toxic dose of drug to efficacious dose of drug [4]: 12, 500

Structure (SMILES): CCC1=C[C@@H]2CN(C1)Cc1c([nH]c3ccccc13)[C@@](C(=O)OC)(c1cc3c(cc1OC)N(C)[C@H]1[C@@](O)(C(=O)OC)[C@H](OC(C)=O)[C@]4(CC)C=CCN5CC[C@]31[C@@H]54)C2 [Navelbine]
- % increase in survival time vs. untreated mice ([5]; Navelbine alone 0.5 mg/kg): 190%
- % increase in survival time vs. untreated mice ([5]; Navelbine alone 1.0 mg/kg): 245%
- % increase in survival time vs. untreated mice ([5]; Navelbine alone 2.0 mg/kg): 265%

Structure (SMILES): COc1cccc2c1C(=O)c1c(O)c3c(c(O)c1C2=O)C[C@@](O)(C(=O)CO)C[C@@H]3O[C@H]1C[C@H](N)[C@H](O)[C@H](C)O1 [Adriamycin]
- IC50 ([6]; HT29, first column): 0.03 µg/mL (≈ 0.0552 µM)
- IC50 ([6]; HT29, second column): 0.006 µg/mL (≈ 0.011 µM)
- IC50 ([7]; MX1, first column): 0.02 µg/mL (≈ 0.0368 µM)
- IC50 ([7]; MX1, second column): 0.001 µg/mL (≈ 0.00184 µM)
- IC50 ([8]; A549, first column): 0.03 µg/mL (≈ 0.0552 µM)
- IC50 ([8]; A549, second column): 0.009 µg/mL (≈ 0.0166 µM)
- CC50 ([9]; bronchial cells, Broncheal Cells, first value): 0.015 µg/mL (≈ 0.0276 µM)
- CC50 ([9]; bronchial cells, Broncheal Cells, second value): 0.002 µg/mL (≈ 0.00368 µM)
- CC50 ([9]; fibroblasts, first value): 0.065 µg/mL (≈ 0.12 µM)
- CC50 ([9]; fibroblasts, second value): 0.1 µg/mL (≈ 0.184 µM)
- CC50 ([9]; kerotinoyle cells, first value): 0.0035 µg/mL (≈ 0.00644 µM)
- CC50 ([9]; kerotinoyle cells, second value): 0.0093 µg/mL (≈ 0.0171 µM)
- toxicity relative to the test materials [10]: more toxic than any of the test materials by one or two logs

— patent US5929099A, “Pharmaceutical composition for inhibiting the growth of cancers” (Procter & Gamble Co., priority 1996, dated 1999)
